Tests used:
RARβ = biological target: T1, RARβ (Homo sapiens, UniProt P10826); assay: Ligand binding assay, RARβ; details: read-out: Kd RABβ
T1 sequence (P10826 1-455): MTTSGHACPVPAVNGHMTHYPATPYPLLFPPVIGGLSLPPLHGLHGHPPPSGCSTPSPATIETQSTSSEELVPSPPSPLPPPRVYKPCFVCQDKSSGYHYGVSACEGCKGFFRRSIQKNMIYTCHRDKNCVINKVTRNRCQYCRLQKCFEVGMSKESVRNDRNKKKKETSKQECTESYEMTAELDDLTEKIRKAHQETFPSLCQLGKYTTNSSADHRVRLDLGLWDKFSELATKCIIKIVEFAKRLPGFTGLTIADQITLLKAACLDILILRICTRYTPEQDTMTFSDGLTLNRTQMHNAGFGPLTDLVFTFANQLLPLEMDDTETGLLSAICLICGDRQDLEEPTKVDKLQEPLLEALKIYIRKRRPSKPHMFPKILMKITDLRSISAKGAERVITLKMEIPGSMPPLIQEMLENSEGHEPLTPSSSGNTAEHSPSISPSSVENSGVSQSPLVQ
Description: (§1) A holoreceptor transactivation assay and a ligand binding assay which measure the antagonist/agonist like activity of the compounds of the invention, or their ability to bind to the several retinoid receptor subtypes, respectively, are described in published PCT Application No. WO WO93/11755 (particularly on pages 30-33 and 37-41) published on Jun. 24, 1993, the specification of which is also incorporated herein by reference. A detailed experimental procedure for holoreceptor transactivations has been described by Heyman et al. Cell 1992, 68, 397-406; Allegretto et al. J. Biol. Chem. 1993 268, 26625-26633, and Mangelsdorf et al. The Retinoids: Biology, Chemistry and Medicine, pp 319-349, Raven Press Ltd., New York, which are expressly incorporated herein by reference. The results obtained in this assay are expressed in EC50 numbers, as they are also in the chimeric receptor transactivation assay. The results of ligand binding assay are expressed in Kd numbers. (See Cheng et al. Biochemical Pharmacology 22, 3099-3108, expressly incorporated herein by reference.) Still another transactivation assay, the “PGR assay” is described in the publication Klein et al. J. Biol. Chem. 1996, 271, 22692-22696, which is expressly incorporated herein by reference, and a detailed description is also provided below. The results of the PGR assay are also expressed in EC50 numbers (nanomolar concentration).

RARα = biological target: T2, RARα (Homo sapiens, UniProt P10276); assay: Ligand binding assay, RARα
T2 sequence (P10276 1-462): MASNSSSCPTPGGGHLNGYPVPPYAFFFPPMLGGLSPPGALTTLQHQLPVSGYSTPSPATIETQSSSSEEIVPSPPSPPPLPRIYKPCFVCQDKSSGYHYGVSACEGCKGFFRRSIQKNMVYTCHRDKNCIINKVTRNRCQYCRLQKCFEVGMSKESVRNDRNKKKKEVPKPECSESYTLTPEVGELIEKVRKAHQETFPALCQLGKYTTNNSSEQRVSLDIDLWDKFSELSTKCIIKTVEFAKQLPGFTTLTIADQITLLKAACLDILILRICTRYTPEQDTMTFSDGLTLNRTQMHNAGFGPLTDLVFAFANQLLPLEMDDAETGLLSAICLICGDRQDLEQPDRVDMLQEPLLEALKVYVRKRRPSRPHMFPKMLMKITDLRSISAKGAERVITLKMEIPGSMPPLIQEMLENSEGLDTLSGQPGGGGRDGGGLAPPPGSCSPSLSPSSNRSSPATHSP
Description: as §1

RARγ = biological target: T3, RARγ (Homo sapiens, UniProt P13631); assay: Ligand binding assay, RARγ
T3 sequence (P13631 1-454): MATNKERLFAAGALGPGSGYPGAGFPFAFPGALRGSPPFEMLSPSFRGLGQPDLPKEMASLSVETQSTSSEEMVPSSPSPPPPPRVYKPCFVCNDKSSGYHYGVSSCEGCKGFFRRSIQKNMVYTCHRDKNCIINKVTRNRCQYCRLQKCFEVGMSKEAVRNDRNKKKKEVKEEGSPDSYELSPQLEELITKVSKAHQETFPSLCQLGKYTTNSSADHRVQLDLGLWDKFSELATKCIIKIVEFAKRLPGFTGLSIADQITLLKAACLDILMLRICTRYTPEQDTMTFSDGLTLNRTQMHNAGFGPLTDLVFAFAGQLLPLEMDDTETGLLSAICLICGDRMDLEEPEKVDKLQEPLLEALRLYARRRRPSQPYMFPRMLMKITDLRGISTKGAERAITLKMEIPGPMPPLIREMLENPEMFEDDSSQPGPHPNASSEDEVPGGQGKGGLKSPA
Description: as §1

SMILES | Kd (RARβ) | Kd (RARα) | Kd (RARγ)
CC(C)(C)c1ccc(C#Cc2ccc(C(=O)O)cc2)cc1Oc1ccc(C(F)(F)F)cc1 [Compound 3, 4-[[4′-tert-Butyl-3′-(4″-trifluoromethyl)phenoxy]phenylethynyl]benzoic Acid] | 44 nM | 90 nM | 102 nM
CC(C)(C)c1ccc(C#Cc2ccc(C(=O)O)c(F)c2)cc1Oc1ccc(C(F)(F)F)cc1 [Compound 4, 4-[[4′-tert-Butyl-3′-(4″-trifluoromethyl)phenoxy]phenylethynyl]-2-fluoro-benzoic Acid] | 14.5 nM | 17 nM | 59 nM
Cc1ccc(Oc2cc(/C=C/c3ccc(C(=O)O)cc3)ccc2C(C)(C)C)cc1 [Compound 15, 4-[[4′-tert-Butyl-3′-(4″-methyl)phenoxy]phenylvinyl]benzoic Acid] | 0.8 nM | 12.5 nM | 33 nM
CC(C)(C)c1ccc(C#Cc2ccc(C(=O)O)c(F)c2)cc1Oc1ccc(N=[N+]=[N-])cc1 [Compound 17, 4-[[4′-tert-Butyl-3′-(4″-azido)phenoxy]phenylethynyl]-2-fluoro-benzoic Acid] | 24 nM | 20 nM | 18 nM

Results, then the compound that gave them:

Kd (RARβ) | Kd (RARα) | Kd (RARγ) | SMILES
16 nM | 22.5 nM | 84 nM | CC(C)(C)c1ccc(C#Cc2ccc(C(=O)O)c(F)c2)cc1Oc1ccc(I)cc1 [Compound 20, 4-[[4′-tert-Butyl-3′-(4″-iodo)phenoxy]phenylethynyl]-2-fluoro-benzoic Acid]
36 nM | 17 nM | 162 nM | CC(C)(C)c1ccc(/C=C/c2ccc(C(=O)O)cc2)cc1Oc1ccc(C(F)(F)F)cc1 [Compound 22, 4-[[4′-tert-Butyl-3′-(4″-trifluoromethyl)phenoxy]vinyl]benzoic Acid]
9 nM | 12 nM | 22.5 nM | CCc1ccc(Oc2cc(C#Cc3ccc(C(=O)O)c(F)c3)ccc2C(C)(C)C)cc1 [Compound 25, 4-[[4′-tert-Butyl-3′-(4″-ethyl)phenoxy]phenylethynyl]-2-fluoro-benzoic Acid]
10 nM | 11 nM | 17 nM | Cc1ccc(Oc2cc(C#Cc3ccc(C(=O)O)c(F)c3)ccc2C(C)(C)C)cc1 [Compound 26, 4-[[4′-tert-Butyl-3′-(4″-methyl)phenoxy]phenylethynyl]-2-fluoro-benzoic Acid]
13 nM | 48 nM | 41 nM | Cc1ccc(Oc2cc(C#Cc3ccc(C(=O)O)cc3)ccc2C(C)(C)C)cc1 [Compound 30, 4-[[4′-tert-Butyl-3′-(4″-methyl)phenoxy]phenylethynyl]benzoic Acid]

From patent US6660755B2, “Substituted diaryl or diheteroaryl methans, ethers and amines having retinoid agonist, antagonist or inverse agonist type biological activity” (Allergan, Inc., priority 1997, dated 2003)
